Assay results reported in patent publication US20260083750A1, “SMALL MOLECULE INHIBITORS OF KRAS PROTEINS” (MERCK SHARP & DOHME LLC, priority 2022, published 2026).

Key:
[1] = molecular target: T1, KRAS-G12D (Homo sapiens, UniProt P01116, G12D); test: SOS-catalyzed nucleotide exchange assay (Procedure A, TR-FRET); format: biochemical; conditions: 60 min preincubation, SOS + GTP, read-out: KRAS G12D GNE IC50
T1 construct: N-terminal biotin-acceptor peptide […]
Source text: (§1) Procedure for SOS-Catalyzed Nucleotide Exchange Assay for KRAS-G12C/D/V, G13D, HRAS, and NRAS (Procedure A)
(§2) Recombinant KRAS-G12C protein used in this assay has an additional triple mutation (C51S/C80L/C118S), whereas KRAS-G12D/V, G13D, HRAS and NRAS are in context of their WT protein sequence background. Specifically, the SOS-catalyzed nucleotide exchange assay utilizes a preformed TR-FRET complex containing a specific biotinylated RAS protein (KRAS-G12C/V/D, G13D, HRAS, NRAS; described above) with Bodipy-GDP, and Terbium-streptavidin. Compounds are preincubated with this complex for 60 minutes. Subsequently, recombinant human SOS protein and unlabeled GTP are added to initiate the exchange reaction. Small molecule inhibitors stabilize the Bodipy-GDP complex whereas the untreated protein rapidly exchanges Bodipy-GDP for unlabeled GTP resulting in reduced TR-FRET signal.
(§3) To assemble the preformed TR-FRET complexes, each biotinylated RAS protein is diluted to 2 μM in an EDTA Buffer (20 mM HEPES pH 7.5, 50 mM sodium chloride, 10 mM EDTA, and 0.01% Tween) and incubated at room temperature for one hour. This mixture is then further diluted to 90 nM in an Assay Buffer (20 mM HEPES pH 7.5, 150 mM sodium chloride, 10 mM magnesium chloride, and 0.005% Tween) containing 15 nM of Terbium-Streptavidin (Invitrogen, catalog #PV3577) and 900 nM of Bodipy-GDP (Invitrogen, catalog #G22360) and incubated at room temperature for six hours. It should be noted that this preformed TR-FRET complex for each of the RAS protein were made ahead of time, aliquoted and stored at −80° C. until the day of the experiment.
(§4) Each test compound (10 mM stock in DMSO) is diluted in DMSO to make a final-10-point, 3-fold dilution and is acoustically dispensed into a 384-well assay plate (Corning, catalog #3820) using an Echo 550 (Labcyte). Each well of the assay plate receives 3 μL of a specific 3× RAS preformed TR-FRET complex and 3 μL of Assay Buffer and is incubated at room temperature for 60 minutes (preincubation time). Each well then receives 3 μL of 3× recombinant human SOS protein and GTP (Sigma, G8877) in Assay Buffer and is incubated at room temperature for 30 minutes (G13D), 60 minutes (G12C/D, H/NRAS) or 90 minutes for G12V. The final reaction in each well of […] consists of 3 mM GTP, specific Ras and SOS proteins in the following concentrations: KRAS-G12C/SOS=3 nM/40 nM, KRAS-G12D/SOS=1 nM/40 nM, KRAS-G12V/SOS=1.25 nM/160 nM, KRAS-G13D/SOS=1.25 nM/0 nM, HRAS & NRAS=1.25 nM/40 nM.
(§5) The time-resolved fluorescence resonance energy transfer (TR-FRET) signal is measured on an Envision (PerkinElmer) plate reader: Excitation filter=340 nm; emission1=495 nm; emission2=520 nm; dichroic mirror=D400/D505; delay time=[…]. The signal of each well is determined as the ratio of the emission at 520 nm to that at 495 nm. […] The apparent effect as a function of compound concentration is fit to a four-parameter logistic equation.

[2] = molecular target: T2, KRAS-G12V (Homo sapiens, UniProt P01116, G12V); test: as above; format: biochemical; conditions: 60 min preincubation, SOS + GTP, read-out: KRAS G12V GNE IC50
T2 construct: N-terminal biotin-acceptor peptide […]
Source text: as §1, §2, §3, §4, §5

[3] = molecular target: T3, KRAS-G12C (C51S/C80L/C118S) (Homo sapiens, UniProt P01116, C118S/C51S/C80L/G12C); test: as above; format: biochemical; conditions: 60 min preincubation, SOS + GTP, read-out: KRAS G12C GNE IC50
T3 construct: N-terminal biotin-acceptor peptide […]
Source text: as §1, §2, §3, §4, §5

[4] = molecular target: T4, KRAS-G13D (Homo sapiens, UniProt P01116, G13D); test: as above; format: biochemical; conditions: 60 min preincubation, GTP, read-out: KRAS G13D GNE IC50
T4 construct: N-terminal biotin-acceptor peptide […]
Source text: as §1, §2, §3, §4, §5

[5] = molecular target: HRAS (Homo sapiens, UniProt P01112); test: as above; format: biochemical; conditions: 60 min preincubation, SOS + GTP, read-out: HRAS GNE IC50
Source text: as §1, §2, §3, §4
(§6) The time-resolved fluorescence resonance energy transfer (TR-FRET) signal is measured on an Envision (PerkinElmer) plate reader: Excitation filter=340 nm; emission1=495 nm; emission2=520 nm; dichroic mirror=D400/D505; delay time=[…]. The signal of each well is determined as the ratio of the emission at 520 nm to that at 495 nm. Percent effect of each well is determined after normalization to control wells containing DMSO (no effect) or a saturating concentration of inhibitor (max effect). The apparent effect as a function of compound concentration is fit to a four-parameter logistic equation.

[6] = molecular target: NRAS (Homo sapiens, UniProt P01111); test: as above; format: biochemical; conditions: 60 min preincubation, SOS + GTP, read-out: NRAS GNE IC50
Source text: as §1, §2, §3, §4, §6

[7] = system: PANC08.13 cells (homozygous KRAS-G12D activating mutation); test: Cellular phospho-ERK assay in G12D cell line; format: cell-based; conditions: Homo sapiens, PANC-08-13, 2 hours compound incubation, ratio of p-ERK vs. total ERK, read-out: PANC 0813 pERK IC50
Experimental: Procedure for Cellular Phospho-ERK Assay in G12D and G12V Cell Lines
PANC08.13 cells (ATCC® CRL-2551™), containing homozygous KRAS-G12D activating mutation, were cultured in growth medium made of RPMI1640-GlutaMAX™—I (ThermoFisher Scientific 61870) containing 15% heat inactivated fetal bovine serum (ThermoFisher Scientific 10091148)). SW620 cells (ATCC® […]), containing homozygous KRAS-G12V activating mutation, were cultured in growth medium that contains RPMI 1640-GlutaMAX™—I (ThermoFisher Scientific 61870) containing 10% heat inactivated fetal bovine serum (ThermoFisher Scientific 10091148).
Cells for the assay were harvested in growth medium after TrypLE (ThermoFisher scientific 12604021) digestion and were seeded in a 384-well collagen coated cell culture plate (Corning 356702) at a density of 10,000-15,000 cells/20 uL/well, and incubated at 37° C., 5% CO2 overnight. The compound (with 10 mM stock concentration) dose-response titrations were prepared [30 μM final ERK detection assay concentration and 1:3 dilutions, 10-point dose response] and appropriate amounts (270 nL) of test compounds were dispensed in a 384-well intermediate plate using an Echo 550 liquid handler. 30 uL/well of RPMI medium 1640-GlutaMAX™—I was added to the intermediate plate and the contents of the intermediate plate (10 uL/well) were then transferred to the 384-well collagen coated cell culture plate, which was incubated at 37° C., 5% CO2 for 2 hours. After removal of medium from the collagen coated cell culture plate, cells were lysed in lysis buffer from Alpha SureFire® Ultra™ Multiplex p-ERK and total ERK assay kit (PerkinElmer MPSU-PTERK) containing Halt™ Protease and Phosphatase inhibitor cocktail (ThermoFisher Scientific 78446) at room temperature with constant shaking at 300 rpm for 30 minutes. The cell lysates were then transferred to an OptiPlate-384 plate (PerkinElmer 6005620), and the phosphorylation of ERK (p-ERK) and total ERK levels were detected by Alpha SureFire® Ultra™ Multiplex p-EEK kit and total ERK assay kit (PerkinElmer MPSU-PTERK) following the manufacturer's protocol. Assay plates were read on a EnVision Multimode Plate Reader (PerkinElmer), and the ratio of p-ERK vs. total ERK in each well was used as the final readout. Dose response curves were analyzed using a 4-parameter logistic model to calculate IC50 values using Spotfire software.

T2 sequence (P01116 with tags, fused parts or gaps isoform P01116-2 G12V): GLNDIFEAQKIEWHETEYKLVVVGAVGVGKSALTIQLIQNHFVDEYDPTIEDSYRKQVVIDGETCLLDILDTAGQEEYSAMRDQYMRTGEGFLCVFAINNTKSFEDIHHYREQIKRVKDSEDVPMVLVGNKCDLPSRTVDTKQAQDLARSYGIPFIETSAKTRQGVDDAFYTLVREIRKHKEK
T4 sequence (P01116 with tags, fused parts or gaps isoform P01116-2 G13D): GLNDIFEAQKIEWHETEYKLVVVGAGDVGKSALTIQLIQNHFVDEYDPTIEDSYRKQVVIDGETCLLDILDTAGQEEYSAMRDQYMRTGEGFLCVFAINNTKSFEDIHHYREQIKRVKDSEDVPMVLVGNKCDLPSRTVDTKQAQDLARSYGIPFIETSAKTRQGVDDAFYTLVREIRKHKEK
T1 sequence (P01116 with tags, fused parts or gaps isoform P01116-2 G12D): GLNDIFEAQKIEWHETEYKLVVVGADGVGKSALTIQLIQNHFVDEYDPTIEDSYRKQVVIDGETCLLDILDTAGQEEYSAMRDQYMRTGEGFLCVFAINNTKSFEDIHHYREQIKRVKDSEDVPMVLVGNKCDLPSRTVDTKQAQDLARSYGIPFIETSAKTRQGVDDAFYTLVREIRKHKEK
Chain of NRAS (P01111 with tags, fused parts or gaps): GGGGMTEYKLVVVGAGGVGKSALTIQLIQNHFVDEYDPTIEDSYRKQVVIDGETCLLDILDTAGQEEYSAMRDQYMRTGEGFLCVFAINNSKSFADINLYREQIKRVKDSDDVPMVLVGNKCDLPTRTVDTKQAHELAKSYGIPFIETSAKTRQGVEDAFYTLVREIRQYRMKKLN
Chain of HRAS (P01112 with tags, fused parts or gaps): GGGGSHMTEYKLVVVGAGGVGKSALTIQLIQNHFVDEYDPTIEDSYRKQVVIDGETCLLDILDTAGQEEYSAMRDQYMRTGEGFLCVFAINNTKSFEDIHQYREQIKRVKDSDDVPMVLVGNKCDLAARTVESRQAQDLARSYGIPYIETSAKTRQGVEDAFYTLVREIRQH
T3 sequence (P01116 with tags, fused parts or gaps isoform P01116-2 G12C/C51S/C80L/C118S): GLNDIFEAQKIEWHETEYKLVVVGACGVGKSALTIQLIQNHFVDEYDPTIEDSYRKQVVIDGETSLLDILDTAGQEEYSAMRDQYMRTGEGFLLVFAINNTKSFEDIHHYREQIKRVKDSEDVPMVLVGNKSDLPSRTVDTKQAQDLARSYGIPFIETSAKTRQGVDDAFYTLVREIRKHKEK

SMILES | IC50 [1] [nM] | IC50 [2] [nM] | IC50 [3] [nM] | IC50 [4] [nM] | IC50 [5] [nM] | IC50 [6] [nM] | IC50 [7] [nM]
N#Cc1c(N)sc2c(F)ccc(-c3c(Cl)cc4c(N5CCCOCC5)nc(OC[C@]5(CO)CC5(F)F)nc4c3F)c12 [Ex. 32, 2-amino-4-(6-chloro-2-(((R)-2,2-difluoro-1-(hydroxymethyl)cyclopropyl)methoxy)-8-fluoro-4-(1,4-oxazepan-4-yl)quinazolin-7-yl)-7-fluorobenzo[b]thiophene-3-carbonitrile] |  | 3440 | 885 | 798 | > 11100 | > 11100 | 
N#Cc1c(N)sc2c(F)ccc(-c3c(Br)cc4c(N5C6COCC5C6)nc(OC[C@@]56CCCN5C[C@H](F)C6)nc4c3F)c12 [Ex. 36, 4-(4-(3-oxa-6-azabicyclo[3.1.1]heptan-6-yl)-6-bromo-8-fluoro-2-(((2R,7aS)-2-fluorotetrahydro-1H-pyrrolizin-7a(5H)-yl)methoxy)quinazolin-7-yl)-2-amino-7-fluorobenzo[b]thiophene-3-carbonitrile] | 9.34 |  | 37.1 | 20.2 | > 11100 | > 11100 | 103
Cc1cc(N)nc(-c2c(F)cc3c(N4CC[C@@H]5[C@@H](C#N)[C@@H]5CC4)nc(OC[C@@]45CCCN4C[C@H](F)C5)nc3c2F)c1C(F)(F)F [Ex. 45, (1R,7S,8S)-4-(7-(6-amino-4-methyl-3-(trifluoromethyl)pyridin-2-yl)-6,8-difluoro-2-(((2R,7aS)-2-fluorotetrahydro-1H-pyrrolizin-7a(5H)-yl)methoxy)quinazolin-4-yl)-4-azabicyclo[5.1.0]octane-8-carbonitrile] | 4470 | 1490 | 1750 | ≥ 11100 | > 11100 | > 11100 | 
CC1(NC[C@@]2(COc3nc(N4CCCOCC4)c4cc(Cl)c(-c5ccc(F)c6sc(N)c(C#N)c56)c(F)c4n3)CC2(F)F)COC1 [compound 29, 2-amino-4-(6-chloro-2-(((R)-2,2-difluoro-1-(((3-methyloxetan-3-yl)amino)methyl)cyclo-propyl)methoxy)-8-fluoro-4-(1,4-oxazepan-4-yl)quinazolin-7-yl)-7-fluorobenzo[b]thiophene-3-carbonitrile] | 2360 | 273 | 390 | 936 | > 11100 | > 11100 | 
N#Cc1c(N)sc2c(F)ccc(-c3c(Cl)cc4c(N5CCCOCC5)nc(OC[C@]5(CN6CCOCC6)CC5(F)F)nc4c3F)c12 [compound 31, 2-amino-4-(6-chloro-2-(((R)-2,2-difluoro-1-(morpholinomethyl)cy-clopropyl)methoxy)-8-fluoro-4-(1,4-oxazepan-4-yl)quinazolin-7-yl)-7-fluorobenzo[b]thiophene-3-carbonitrile] | 2540 | 152 | 1180 | 748 | > 11100 | > 11100 | 

The next lines start with the values.

IC50 [1] [nM] | IC50 [2] [nM] | IC50 [3] [nM] | IC50 [4] [nM] | IC50 [5] [nM] | IC50 [6] [nM] | IC50 [7] [nM] | SMILES
2.33 | 1.24 | 5.51 | 1.13 | 1170 | > 11100 | 12.2 | N#Cc1c(N)sc2c(F)ccc(-c3c(C(F)(F)F)cc4c(N5CCCOCC5)nc(OC[C@@]56CCCN5C[C@H](F)C6)nc4c3F)c12 (single isomer, unassigned) [Ex. 35]
25.2 | 9.58 | 14.7 | 10.1 | > 11100 | > 11100 | 274 | COCC1CCOCCN1c1nc(OC[C@@]23CCCN2C[C@H](F)C3)nc2c(F)c(-c3ccc(F)c4sc(N)c(C#N)c34)c(Cl)cc12 (stereo partly drawn) [compound 16, 2-amino-4-(6-chloro-8-fluoro-2-(((2R,7aS)-2-fluorotetrahydro-1H-pyrrolizin-7a(5H)-yl)methoxy)-4-(5-(methoxymethyl)-1,4-oxazepan-4-yl)quinazolin-7-yl)-7-fluorobenzo[b]thio-phene-3-carbonitrile]
4980 | 148 | 243 | 846 | > 11100 | > 11100 |  | CC1(NC[C@@]2(COc3nc(N4CCCOCC4)c4cc(Cl)c(-c5ccc(F)c6sc(N)c(C#N)c56)c(F)c4n3)CC2(F)F)CC1 [compound 27, 2-amino-4-(6-chloro-2-(((R)-2,2-difluoro-1-(((1-methylcyclopropyl)a-mino)methyl)cyclopro-pyl)methoxy)-8-fluoro-4-(1,4-oxazepan-4-yl)quinazolin-7-yl)-7-fluorobenzo[b]thiophene-3-carbonitrile]
8.27 | 3.54 |  |  |  |  | 48.9 | N#Cc1c(N)sc2c(F)ccc(-c3c(Br)cc4c(N5CCCOCC5)nc(OC[C@@]56CCCN5C[C@H](F)C6)nc4c3F)c12 [compound 37, 2-amino-4-(6-bromo-8-fluoro-2-(((2R,7aS)-2-fluorotetrahydro-1H-pyrrolizin-7a(5H)-yl)methoxy)-4-(1,4-oxazepan-4-yl)quinazolin-7-yl)-7-fluorobenzo[b]thiophene-3-carbonitrile]
